Results from ChEMBL document CHEMBL5727155, “Ethynyl derivatives” (2018).

Biological target: Metabotropic glutamate receptor 4 (Homo sapiens, UniProt Q14833)
Assay: Ca2+ Mobilization In Vitro Assay: A monoclonal HEK-293 cell line stably transfected with a cDNA encoding for the human mGlu4 receptor was generated; for the work with mGlu4 Positive Allosteric Modulators (PAMs), a cell line with low receptor expression levels and low constitutive receptor activity was selected to allow the differentiation of agonistic versus PAM activity. Cells were cultured according to standard protocols (Freshney, 2000) in Dulbecco's Modified Eagle Medium with high glucose supplemented with 1 mM glutamine, 10% (vol/vol) heat-inactivated bovine calf serum, Penicillin/Streptomycin, 50 μg/ml hygromycin and 15 μg/ml blasticidin (all cell culture reagents and antibiotics from Invitrogen, Basel, Switzerland).About 24 hrs before an experiment, 5×10^4 cells/well were seeded in poly-D-lysine coated, black/clear-bottomed 96-well plates. The cells were loaded with 2.5 μM Fluo-4AM in loading buffer (1×HBSS, 20 mM HEPES) for 1 hr at 37° C. and washed five times with loading buffer. The cells were transferred into a Functional Drug Screening System 7000 (Hamamatsu, Paris, France), and 11 half logarithmic serial dilutions of test compound at 37° C. were added and the cells were incubated for 10-30 min. with on-line recording of fluorescence. […]

Metabotropic glutamate receptor 4, sequence (Q14833 whole entry): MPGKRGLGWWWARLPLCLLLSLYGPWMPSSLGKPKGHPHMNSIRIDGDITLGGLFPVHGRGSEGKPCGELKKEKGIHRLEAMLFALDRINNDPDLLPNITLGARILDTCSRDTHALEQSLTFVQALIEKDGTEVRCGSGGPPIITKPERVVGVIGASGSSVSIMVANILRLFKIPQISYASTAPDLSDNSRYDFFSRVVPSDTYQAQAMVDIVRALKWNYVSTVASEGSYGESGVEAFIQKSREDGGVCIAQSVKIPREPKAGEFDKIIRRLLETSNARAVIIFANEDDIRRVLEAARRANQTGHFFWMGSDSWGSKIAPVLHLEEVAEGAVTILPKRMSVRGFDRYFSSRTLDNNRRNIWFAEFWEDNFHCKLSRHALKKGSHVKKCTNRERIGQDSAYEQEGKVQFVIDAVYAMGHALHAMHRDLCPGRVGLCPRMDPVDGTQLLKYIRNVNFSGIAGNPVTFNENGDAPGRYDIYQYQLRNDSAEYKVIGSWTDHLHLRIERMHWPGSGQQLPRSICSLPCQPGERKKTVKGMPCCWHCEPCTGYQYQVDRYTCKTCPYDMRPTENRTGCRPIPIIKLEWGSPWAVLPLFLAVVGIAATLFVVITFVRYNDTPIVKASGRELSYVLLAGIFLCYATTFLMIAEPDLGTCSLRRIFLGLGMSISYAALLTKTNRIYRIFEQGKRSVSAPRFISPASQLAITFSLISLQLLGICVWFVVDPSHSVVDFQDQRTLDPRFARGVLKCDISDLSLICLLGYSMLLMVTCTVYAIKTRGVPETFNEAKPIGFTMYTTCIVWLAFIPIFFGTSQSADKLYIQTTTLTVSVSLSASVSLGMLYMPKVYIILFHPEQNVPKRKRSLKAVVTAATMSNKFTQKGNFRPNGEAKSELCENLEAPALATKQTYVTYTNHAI

## CC(C)(C)Oc1ncc(N2CCN3C(=O)N(c4c(F)cc(C#Cc5ccccc5)cc4F)C(=O)C[C@@]3(C)C2=O)cn1
  EC50: 157 nM
